Laboratory results reported in ChEMBL document CHEMBL5143758, “2-Amino-1,3,4-thiadiazoles as Glutaminyl Cyclases Inhibitors Increase Phagocytosis through Modification of CD47-SIRPα Checkpoint” (ACS Med Chem Lett, 2022).

Each compound was assayed against Glutaminyl-peptide cyclotransferase-like protein (Homo sapiens, UniProt Q9NXS2) (assay: Inhibition of recombinant human isoQC using H-Gln-AMC hydrobromide as fluorogenic substrate incubated for 6 hrs by fluorometric microplate reader analysis).
Sequence of Glutaminyl-peptide cyclotransferase-like protein (Q9NXS2 whole entry): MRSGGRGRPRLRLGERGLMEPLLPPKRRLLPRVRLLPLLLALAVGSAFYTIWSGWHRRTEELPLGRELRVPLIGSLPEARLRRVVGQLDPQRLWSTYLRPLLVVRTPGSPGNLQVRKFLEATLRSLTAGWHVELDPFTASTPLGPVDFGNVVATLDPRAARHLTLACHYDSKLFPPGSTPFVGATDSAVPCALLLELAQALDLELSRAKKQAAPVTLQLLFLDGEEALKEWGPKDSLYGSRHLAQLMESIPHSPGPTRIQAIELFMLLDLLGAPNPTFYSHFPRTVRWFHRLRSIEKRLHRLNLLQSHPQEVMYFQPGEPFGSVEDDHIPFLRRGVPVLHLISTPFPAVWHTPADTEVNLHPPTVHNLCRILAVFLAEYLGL
For `COc1ccc(NC(=S)NCCCn2ccnc2)cc1OC`, the IC50 was 0.351 µM.

Each compound was assayed against Glutaminyl-peptide cyclotransferase (Homo sapiens, UniProt Q16769).
Sequence of Glutaminyl-peptide cyclotransferase (Q16769 whole entry): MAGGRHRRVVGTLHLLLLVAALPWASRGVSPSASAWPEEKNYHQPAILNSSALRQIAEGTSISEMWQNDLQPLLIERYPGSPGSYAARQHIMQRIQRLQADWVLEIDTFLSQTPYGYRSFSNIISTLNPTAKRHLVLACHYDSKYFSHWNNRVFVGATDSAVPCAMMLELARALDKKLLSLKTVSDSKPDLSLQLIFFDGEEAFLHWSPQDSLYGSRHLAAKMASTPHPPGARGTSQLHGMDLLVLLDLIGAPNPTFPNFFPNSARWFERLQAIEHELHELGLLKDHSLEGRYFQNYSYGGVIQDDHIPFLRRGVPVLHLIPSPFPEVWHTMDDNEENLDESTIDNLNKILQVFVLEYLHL
Description: Inhibition of recombinant human QC using H-Gln-AMC hydrobromide as fluorogenic substrate incubated for 6 hrs by fluorometric microplate reader analysis
`O=C(O)c1ccc2cccc(O)c2n1` was tested, and the IC50 was 203 µM. Work on `Oc1ccccc1O` [CATECHOL] yielded an IC50 of 5 µM. Work on `Cc1cncn1-c1ccccc1` yielded an IC50 of 144 µM. Compound `O=C1CNC(=S)N1` [THIOHYDANTOIN] has an IC50 of 390 µM. Compound `O=c1ccocc1O` has an IC50 of 232 µM. `Cc1c[nH]cn1` gave an IC50 of 110 µM. Work on `Sc1nc2ccccc2[nH]1` [2-MERCAPTOBENZIMIDAZOLE] yielded an IC50 of 551 µM. Work on `Cn1cccc(O)c1=O` yielded an IC50 of 772 µM. In the case of `Oc1cccc2cccnc12` [OXYQUINOLINE], the IC50 is reported as 208 µM.
